Type in all cases: cell-based
The target of one assay is ER (estrogen receptor) (Homo sapiens (Human), UniProt P03372). As to the kind of experiment: Inhibition of binding of E to ER (MCF-7/ERE-luciferase reporter cells). Particulars: MCF-7/ERE-luciferase cells, 0.1 nM estradiol, 24 h. The protocol: The compounds of the present disclosure can inhibit the binding of E (estrogen) to ER (estrogen receptor), thereby blocking the binding of the complex of E and ER to ERE (estrogen response element), and consequently the expression of downstream luciferase proteins. The inhibitory effects of the compounds of the present disclosure on the binding of E to ER was tested by using the following method.
An ERE was cloned upstream of the luciferase gene, and MCF-7/ERE-luciferase monoclonal cells were selected by transfection of MCF-7 (TCHu74, National Collection of Authenticated Cell Cultures). The MCF-7/ERE-luciferase cells were seeded into a 96-well plate with an MEM (hyclone, SH30024.01B) medium containing 10% charcoal stripped FBS (Moregate, FBSF), 1% sodium pyruvate (sigma, S8636), 1% non-essential amino acids (sigma, M7145) and 500 μg/mL G418 at a density of 30,000 cells/well and cultured at 37° C. with 5% CO2. 20 mM stock solutions of the drugs are prepared, serially diluted 10-fold with 100% DMSO, and then diluted 20-fold with the medium. After the cells were cultured for 24 h, the medium was removed. 0.1 nM estradiol (sigma, E2758) and 10 μL of a medium-diluted drug were added to each well, and DMSO was added to the control group. The mixtures were well mixed by gentle shaking. The cells were cultured in an incubator at 37° C. with 5% CO2 for 24 h, and then the cell culture liquid was removed, followed by the addition of 50 μL of a luciferase substrate (Promega, E6110) to each well. The plate was let stand at room temperature in the dark for 10-15 min, and the chemiluminescence signal values were determined.
The inhibitory effects of the compounds of the present disclosure on the binding of E to ER were tested through the above experiment. The chemiluminescence signal value was plotted against the compound concentration (in log form) using Graphpad Prism, and the IC50 values of the compounds were obtained.

Another assay has as its system MCF-7 cells. As to the kind of experiment: Inhibition of proliferation of MCF-7 cells (ATP method, Cell Titer-Glo). Conditions: for IC50: Homo sapiens, MCF7, MCF-7 cells, 72 h; for inhibitory effects on the proliferation of MCF-7 cells (in words): conclusion. The protocol: This experiment was intended to test the inhibitory effects of the compounds disclosed herein on the proliferation of MCF-7 Cells by using the ATP method, and to evaluate the in vitro activity of the compounds according to the IC50 values.
MCF-7 cells (TCHu74, National Collection of Authenticated Cell Cultures) were seeded into a 96-well plate with an MEM (hyclone, SH30024.01B) medium containing 10% FBS (Gibco, 10099-141), 1% sodium pyruvate (sigma, 58636) and 1% non-essential amino acid (sigma, M7145) at a density of 4,000 cells/well and cultured at 37° C. with 5% CO2. 20 mM stock solutions of the compounds are prepared, serially diluted with 100% DMSO to a final concentration of 1000×, and then diluted 20-fold with a medium containing 2% FBS. After the cells were cultured for 24 h, the medium was removed. 90 μL of the medium containing 2% FBS and 10 μL of a drug were added to each well, and 10 μL of DMSO was added to the control group. The mixtures were well mixed by gentle shaking. The blank group contained only 100 μL of the medium containing 2% FBS. The cells were cultured in an incubator at 37° C. with 5% CO2 for 72 h, and then 50 μL of mixed Cell Titer-Glo (Promega, G7571) was added to each well. The mixtures were well mixed by shaking and let stand at room temperature for 10 min, and the chemiluminescence signal values were determined.
The chemiluminescence signal value was plotted against the compound concentration (in log form) using Graphpad Prism, and the IC50 values of the compounds were obtained.
(In ATP-based viability assays light output follows the ATP content of the culture.)

The target of another assay is ERα (Homo sapiens (Human), UniProt P03372). Briefly: Degradation of ERα in MCF-7 cells (ELISA). Particulars: for DC50: MCF-7 cells, 16 to 18 h, read-out: EC50 (nM), degradation of ERα; for degradation of ERα (in words): conclusion. The method, then:
ERα-positive breast cancer cell line MCF-7 cells were cultured in a DMEM/F12 medium (HyClone, SH30023.01) containing 10% fetal bovine serum (Corning, 35-010-CV). […] The following day the compounds were serially diluted with DMSO and further diluted with the phenol red-free DMEM/F12 medium containing 5% charcoal-stripped fetal bovine serum. 20 μL of a diluted compound was added to each well of the 48-well plate at final concentrations of 3000, 300, 30, 3, 0.3, 0.03 and 0.003 nM. The 48-well plate was placed in the incubator for 16 to 18 h. A 96-well plate was coated with the capture antibody from the human ERα/NR3A1 total protein assay kit (R&D, DYC5715-5). […] The plate was placed in an incubator at 26° C. overnight. On day 3, the antibody-coated 96-well plate was washed once with PBS, and 200 μL of PBS containing 1% BSA was added to each well. The plate was incubated in an incubator at 37° C. for 1.5 h to be blocked. The cell culture medium supernatant was discarded. The cells were washed once with PBS, and 60 μL of a cell lysis buffer was added to each well. […] The cells were lysed on ice for 15 min, and 300 μL of PBS containing 1 mM EDTA and 0.5% TritonX-100 was added to each well to dilute the urea to 1 M. The blocking buffer in the blocked 96-well plate was discarded, and 100 μL of diluted cell lysis buffer was added to each well. The plate was incubated in an incubator at 37° C. for 2 h and washed 5 times with PBS. A biotinylated assay antibody was diluted to 0.4 μg/mL with PBS containing 1% BSA, and then 100 μL of the assay antibody was added to each well. The plate was incubated in an incubator at 37° C. for 1 h. The plate was then washed five more times, and 100 μL of avidin-HRP diluted 200-fold with PBS containing 1% BSA was added to each well. The plate was incubated at 37° C. for 30 min. The plate was washed five more times, and 100 μL of TMB substrate was added to each well. The plate was incubated at room temperature until blue color appeared, and 100 μL of stop solution was added to each well. OD450 signal values were read using a PHERAstar multi-mode microplate reader. The IC50 values for the inhibitory activity of the compounds were calculated using Graphpad Prism software.

ERα, sequence (P03372 whole entry): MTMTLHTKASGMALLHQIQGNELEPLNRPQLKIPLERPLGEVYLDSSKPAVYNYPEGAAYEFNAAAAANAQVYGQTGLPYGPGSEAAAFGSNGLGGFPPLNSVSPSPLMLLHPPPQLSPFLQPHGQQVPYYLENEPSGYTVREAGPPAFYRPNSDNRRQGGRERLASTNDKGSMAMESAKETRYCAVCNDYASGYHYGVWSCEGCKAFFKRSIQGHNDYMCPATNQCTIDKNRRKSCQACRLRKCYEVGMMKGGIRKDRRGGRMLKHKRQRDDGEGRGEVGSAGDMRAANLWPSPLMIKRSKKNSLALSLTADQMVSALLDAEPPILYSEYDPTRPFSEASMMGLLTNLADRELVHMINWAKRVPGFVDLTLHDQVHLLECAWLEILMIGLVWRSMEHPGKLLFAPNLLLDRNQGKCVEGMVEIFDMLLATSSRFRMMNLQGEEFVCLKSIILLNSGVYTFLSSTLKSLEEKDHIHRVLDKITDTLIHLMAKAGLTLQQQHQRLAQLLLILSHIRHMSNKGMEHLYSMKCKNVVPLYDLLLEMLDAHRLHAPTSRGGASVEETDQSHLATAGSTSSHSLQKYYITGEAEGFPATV
ER (estrogen receptor), sequence (P03372 whole entry): as above

Broadly, the IC50 is the concentration that gives 50% inhibition. Lower therefore signals higher potency. Consider `C[C@@H]1Cc2cc3c(cc2[C@@H](c2ccc(NC4CN(CCCF)C4)cc2)N1CC(F)(F)F)OCO3` [Example 16, 1-(3-Fluoropropyl)-N-(4-((5R,7R)-7-methyl-6-(2,2,2-trifluoroethyl)-5,6,7,8-tetrahydro-[1,3]dioxolo[4,5-g]isoquinolin-5-yl)phenyl)azetidin-3-amine], for which, at ER (estrogen receptor), the IC50 worked out at 0.27 nM. That is a sub-nanomolar value.

Take `C[C@@H]1Cc2ccc3c(=O)[nH][nH]c(=O)c3c2[C@@H](c2ccc(NC3CN(CCCF)C3)cn2)N1CC(F)(F)CO` [Example 21, reference compound]: in the assay with MCF-7 cells, the IC50 was greater than 10000 nM and the “inhibitory effects on the proliferation of MCF-7 cells (in words)” value is “no activity”. Besides, at ERα, the DC50 is greater than 10000 nM and the “degradation of ERα (in words)” value is listed as “no activity”.

With `C[C@@H]1Cc2ccc3c(c2[C@@H](c2ccc(NC4CN(CCCF)C4)cn2)N1CC(F)(F)CO)C(=O)NC3=O` [Example 20, (7R,9S)-8-(2,2-difluoro-3-hydroxypropyl)-9-(5-((1-(3-fluoropropyl)azetidin-3-yl)amino)pyridin-2-yl)-7-methyl-6,7,8,9-tetrahydro-1H-pyrrolo[3,4-h]isoquinoline-1,3(2H)-dione, reference compound], in the assay on MCF-7 cells, the IC50 was greater than 10000 nM and the “inhibitory effects on the proliferation of MCF-7 cells (in words)” value is recorded as “no activity”. Moreover, on ERα, the DC50 was greater than 10000 nM and the “degradation of ERα (in words)” value was “no activity”.
